Experiments:
[1] = system: Staphylococcus epidermidis F1513; test: Biofilm formation on plastic coated UV beads; type: cell-based; settings: different concentrations of Fe-QA; T=24 h
Method: (§1) Bacteria (Enterococcus faecalis NCTC 12697, Staphylococcus epidermidis F1513 and Staphylococcus aureus ATCC 25923) were grown on Brain heart infusion (BHI) passaged to new medium either containing Fe-QA or alone. Growth suspensions were prepared at 0.0001 OD/ml and then allowed to grow at 37° C. under normal atmospheric conditions for 24 h in BHI with plastic coated UV beads (Lascells). […], 10 μl suspension was serially diluted 10 fold to 10-3, 10-4, 10-5, 10-6, 10-7, 10-8. For each dilution, 10 μl was spotted on BHI agar plates and colonies counted after 24 h. The beads were also removed washed in PBS before adding to 1 ml PBS. After vortex mixing, 10 μl of the cell suspension was serially diluted as above and cell counts carried out.
The effect of Fe-QA on biofilm formation by S. epidermidis F1513 was tested as described in the materials and methods of Example 1.

[2] = system: Uropathogenic E. coli UPEC-536; test: Planktonic growth rate in RPMI-1640; type: cell-based, Escherichia coli; settings: Fe-QA 100 μM, 24 hours
Method: The growth rate of Uropathogenic E. coli UPEC-536 in RPMI-1640 media over a period of 24 hours was compared to the growth rate of UPEC in RPMI-1640 media, but in the presence of 100 μM Fe-QA. The growth rate of Pseudomonas aeruginosa in RPMI-1640 media was also compared to the growth rate of Pseudomonas aeruginosa in RPMI-1640 media, but in the presence of 100 μM Fe-QA.

[3] = system: Camyplobacter jejuni NCTC 11168; test: Motility on brain-heart infusion plate; type: cell-based, Campylobacter jejuni; settings: FeQ 34 μM; 43 hours
Method: Camyplobacter jejuni NCTC 11168 was treated with FeQ (34 μM) and a plate containing brain-heart infusion (BHI) medium inoculated with […], 2×10^5 colony forming units of the treated bacteria and the plate was cultured for 43 hours. The growth and motility of the bacteria after treatment with FeQ was compared to a positive control where the bacteria had not been treated with FeQ, and also to a negative control where no bacteria were applied to a plate of the BHI medium. […] In contrast, Campylobacter jejuni that was not treated with FeQ was motile, and spread around the culture plate. There was no growth visible, as expected, on the plates that were not inoculated with bacteria.

[4] = system: Enterococcus faecalis NCTC 12697; test: Biofilm formation on plastic coated UV beads; type: cell-based; settings: different concentrations of Fe-QA; T=24 h
Method: as §1

[5] = system: Enteropathogenic E. coli (EPEC) strain E2348/69; test: Growth curve of antibiotic resistant EPEC with gentamicin and Fe complex; type: cell-based, Escherichia coli; settings: for rate of growth relative to gentamicin alone: gentamicin 1.25 μM and FeQ 10 to 100 μM
Method: The impact on the growth curve of antibiotic resistant Enteropathogenic E. coli (EPEC) strain E2348/69 (genotype Wild Type EPEC O17:H6) when grown in the presence of (i) gentamicin (1.25 μM), (ii) Fe-Tyr (100 μM), (iii) gentamicin (1.25 μM) and Fe-Tyr (1.25 μM), and (iv) a control with no gentamicin or Fe-Tyr present was determined.
(§2) The impact on the growth curve of antibiotic resistant Enteropathogenic E. coli (EPEC) strain E2348/69 (genotype Wild Type EPEC O17:H6) when grown in the presence of a fixed concentration of gentamicin (1.25 μM) and an increasing concentration of FeQ versus the strain grown in the presence of only FeQ or only gentamicin, was determined.
as §2, with “FeDOPA” for “FeQ”

O=C1[O][Fe]23([O]C(=O)[C@]4(C[C@@H](O)[C@H](O)[C@H](O)C4)[O]2)([O]C(=O)[C@]2(C[C@@H](O)[C@H](O)[C@H](O)C2)[O]3)[O][C@@]12C[C@@H](O)[C@H](O)[C@H](O)C2 [FeQ, a complex of quinic acid with Fe III]
biofilm formation on plastic coated UV beads [1]: inhibited
planktonic growth rate [2]: does not inhibit the growth
motility of bacteria on BHI plate [3]: not motile
biofilm formation on plastic coated UV beads [4]: inhibited
growth rate ([5]; FeQ alone, 10 μM to 100 μM): did not impact the growth rate
rate of growth relative to gentamicin alone [5]: inhibited
rate of growth relative to gentamicin alone ([5]; listed as Fe-QA): loses its resistance
